From PubChem BioAssay AID2060493 (Molecular Pharmacology Branch, DTP, NCI, 2025)

System: 616215-338-R-J1-PDC tumor spheroids, viability
Experiment: Anticancer human tumor 616215-338-R-J1-PDC patient-derived colon adenocarcinoma cell line growth inhibition [GQUAD]
Conditions: spheroids with HUVEC and MSC; for IC50: curve of first compound; for viability, T/C: stronger effect = lower value
In short: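 Tumor cells were grown as complex spheroids with HUVEC endothelial cells and mesenchymal stem cells as stroma. G-quadruplex stabilizers were combined with targeted agents over half-log dilutions from near the clinical Cmax, or from 10 microM.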

[1] = second compound 0.0316 µM, first compound 0.0316 µM
[2] = second compound 0.0316 µM, first compound 0.1 µM
[3] = second compound 0.0316 µM, first compound 0.316 µM
[4] = second compound 0.0316 µM, first compound 1 µM
[5] = second compound 0.0316 µM, first compound 3.16 µM
[6] = second compound 0.0316 µM, first compound 10 µM
[7] = second compound 0.1 µM, first compound 0.0316 µM
[8] = second compound 0.1 µM, first compound 0.1 µM
[9] = second compound 0.1 µM, first compound 0.316 µM
[10] = second compound 0.1 µM, first compound 1 µM
[11] = second compound 0.1 µM, first compound 3.16 µM
[12] = second compound 0.1 µM, first compound 10 µM
[13] = second compound 0.316 µM, first compound 0.0316 µM
[14] = second compound 0.316 µM, first compound 0.1 µM
[15] = second compound 0.316 µM, first compound 0.316 µM
[16] = second compound 0.316 µM, first compound 1 µM
[17] = second compound 0.316 µM, first compound 3.16 µM
[18] = second compound 0.316 µM, first compound 10 µM
[19] = second compound 1 µM, first compound 0.0316 µM
[20] = second compound 1 µM, first compound 0.1 µM
[21] = second compound 1 µM, first compound 0.316 µM
[22] = second compound 1 µM, first compound 1 µM
[23] = second compound 1 µM, first compound 3.16 µM
[24] = second compound 1 µM, first compound 10 µM
[25] = second compound 3.16 µM, first compound 0.0316 µM
[26] = second compound 3.16 µM, first compound 0.1 µM
[27] = second compound 3.16 µM, first compound 0.316 µM
[28] = second compound 3.16 µM, first compound 1 µM
[29] = second compound 3.16 µM, first compound 3.16 µM
[30] = second compound 3.16 µM, first compound 10 µM
[31] = second compound 10 µM, first compound 0.0316 µM
[32] = second compound 10 µM, first compound 0.1 µM
[33] = second compound 10 µM, first compound 0.316 µM
[34] = second compound 10 µM, first compound 1 µM
[35] = second compound 10 µM, first compound 3.16 µM
[36] = second compound 10 µM, first compound 10 µM
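Further: spheroids exposed to agents for 7 days before readout.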
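Wherever viability, T/C is given: percent viability relative to DMSO vehicle control wells taken as 100%.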

In the case of `O=C(c1cc(Cc2n[nH]c(=O)c3ccccc23)ccc1F)N1CCN(C(=O)C2CC2)CC1` + Cc1cnc(CNC(=O)c2c(=O)c3ccc(N4CCCN(C)CC4)nc3n3c2sc2ccccc23)cn1, the IC50 (second compound 0.0316 µM) is reported as > 10000 nM, the IC50 (second compound 0.1 µM) is reported as > 10000 nM and the IC50 (second compound 0.316 µM) is reported as < 31.6 nM. The IC50 (second compound 1 µM) was < 31.6 nM, the IC50 (second compound 3.16 µM) was < 31.6 nM and the IC50 (second compound 10 µM) was < 31.6 nM. The viability, T/C [1] was 97.3%, the viability, T/C [2] was 103% and the viability, T/C [3] was 107%. It also gave a viability, T/C [4] of 87.9%, a viability, T/C [5] of 84.3% and a viability, T/C [6] of 68.7%. It also gave a viability, T/C [7] of 68.5%, a viability, T/C [8] of 69.3% and a viability, T/C [9] of 74.4%. The viability, T/C [10] was 64.3%, the viability, T/C [11] was 53.9% and the viability, T/C [12] was 51.5%. The viability, T/C [13] was 43.6%, the viability, T/C [14] was 39.4% and the viability, T/C [15] was 46.4%. For the same compound, the viability, T/C [16] was 52.2%, the viability, T/C [17] was 36.1% and the viability, T/C [18] was 35.1%. The viability, T/C [19] was 42.8%, the viability, T/C [20] was 28.7% and the viability, T/C [21] was 30.4%. For the same compound, the viability, T/C [22] was 54.8%, the viability, T/C [23] was 38.5% and the viability, T/C [24] was 26.7%. It also gave a viability, T/C [25] of 28.1%, a viability, T/C [26] of 26.6% and a viability, T/C [27] of 23.2%. For the same compound, the viability, T/C [28] was 28.7%, the viability, T/C [29] was 41.4% and the viability, T/C [30] was 30.3%. It also gave a viability, T/C [31] of 36.6%, a viability, T/C [32] of 28.7% and a viability, T/C [33] of 25.2%. The viability, T/C [34] was 22.7%, the viability, T/C [35] was 44.1% and the viability, T/C [36] was 24.3%.

With `CC[C@@]1(O)C(=O)OCc2c1cc1n(c2=O)Cc2cc3c(CN(C)C)c(O)ccc3nc2-1` + CN(C)c1ccc(Nc2c3ccc(NC(=O)CCN4CCCC4)cc3nc3cc(NC(=O)CCN4CCCC4)ccc23)cc1 the IC50 (second compound 0.0316 µM) was 282 nM, the IC50 (second compound 0.1 µM) was 251 nM and the IC50 (second compound 0.316 µM) was 230 nM. The IC50 (second compound 1 µM) was 272 nM, the IC50 (second compound 3.16 µM) was 263 nM and the IC50 (second compound 10 µM) was 183 nM. It also gave a viability, T/C (second compound 0.0316 µM, first compound 0.000999 µM) of 97.5%, a viability, T/C (second compound 0.0316 µM, first compound 0.00316 µM) of 98.9% and a viability, T/C (second compound 0.0316 µM, first compound 0.00999 µM) of 98%. For the same compound, the viability, T/C [1] was 105%, the viability, T/C (second compound 0.0316 µM, first compound 0.0999 µM) was 87.9% and the viability, T/C [3] was 45.9%. For the same compound, the viability, T/C (second compound 0.1 µM, first compound 0.000999 µM) was 93.5%, the viability, T/C (second compound 0.1 µM, first compound 0.00316 µM) was 101% and the viability, T/C (second compound 0.1 µM, first compound 0.00999 µM) was 101%. It also gave a viability, T/C [7] of 101%, a viability, T/C (second compound 0.1 µM, first compound 0.0999 µM) of 87.2% and a viability, T/C [9] of 40.5%. The viability, T/C (second compound 0.316 µM, first compound 0.000999 µM) was 113%, the viability, T/C (second compound 0.316 µM, first compound 0.00316 µM) was 94.5% and the viability, T/C (second compound 0.316 µM, first compound 0.00999 µM) was 98.5%. The viability, T/C [13] was 105%, the viability, T/C (second compound 0.316 µM, first compound 0.0999 µM) was 85.2% and the viability, T/C [15] was 36.4%. For the same compound, the viability, T/C (second compound 1 µM, first compound 0.000999 µM) was 105%, the viability, T/C (second compound 1 µM, first compound 0.00316 µM) was 100% and the viability, T/C (second compound 1 µM, first compound 0.00999 µM) was 96.2%. For the same compound, the viability, T/C [19] was 101%, the viability, T/C (second compound 1 µM, first compound 0.0999 µM) was 87.4% and the viability, T/C [21] was 44.1%. It also gave a viability, T/C (second compound 3.16 µM, first compound 0.000999 µM) of 97.9%, a viability, T/C (second compound 3.16 µM, first compound 0.00316 µM) of 86.8% and a viability, T/C (second compound 3.16 µM, first compound 0.00999 µM) of 96.7%. The viability, T/C [25] was 95.2%, the viability, T/C (second compound 3.16 µM, first compound 0.0999 µM) was 93.1% and the viability, T/C [27] was 41.8%. It also gave a viability, T/C (second compound 10 µM, first compound 0.000999 µM) of 90.2%, a viability, T/C (second compound 10 µM, first compound 0.00316 µM) of 91% and a viability, T/C (second compound 10 µM, first compound 0.00999 µM) of 95.8%. For the same compound, the viability, T/C [31] was 85.3%, the viability, T/C (second compound 10 µM, first compound 0.0999 µM) was 74.5% and the viability, T/C [33] was 28.1%.

With `CC(=O)O[C@H]1C(=O)[C@@]2(C)[C@H]([C@H](OC(=O)c3ccccc3)[C@]3(O)C[C@H](OC(=O)[C@H](O)[C@@H](NC(=O)c4ccccc4)c4ccccc4)C(C)=C1C3(C)C)[C@]1(OC(C)=O)CO[C@@H]1C[C@@H]2O` + Cc1cnc(CNC(=O)c2c(=O)c3ccc(N4CCCN(C)CC4)nc3n3c2sc2ccccc23)cn1 the IC50 (second compound 0.0316 µM) was < 31.6 nM, the IC50 (second compound 0.1 µM) was < 31.6 nM and the IC50 (second compound 0.316 µM) was < 31.6 nM. The IC50 (second compound 1 µM) was < 31.6 nM, the IC50 (second compound 3.16 µM) was < 31.6 nM and the IC50 (second compound 10 µM) was < 31.6 nM. It also gave a viability, T/C [1] of 37.2%, a viability, T/C [2] of 24.9% and a viability, T/C [3] of 20.3%. The viability, T/C [4] was 15.9%, the viability, T/C [5] was 27.6% and the viability, T/C [6] was 17.1%. It also gave a viability, T/C [7] of 26.9%, a viability, T/C [8] of 35.8% and a viability, T/C [9] of 31.1%. For the same compound, the viability, T/C [10] was 26.7%, the viability, T/C [11] was 26.2% and the viability, T/C [12] was 32%. It also gave a viability, T/C [13] of 37%, a viability, T/C [14] of 34.4% and a viability, T/C [15] of 38.5%. For the same compound, the viability, T/C [16] was 36.4%, the viability, T/C [17] was 39.4% and the viability, T/C [18] was 24.7%. For the same compound, the viability, T/C [19] was 22.9%, the viability, T/C [20] was 35.4% and the viability, T/C [21] was 30.1%. The viability, T/C [22] was 37.9%, the viability, T/C [23] was 30.2% and the viability, T/C [24] was 33.8%. The viability, T/C [25] was 26.6%, the viability, T/C [26] was 21.6% and the viability, T/C [27] was 28.9%. It also gave a viability, T/C [28] of 35.8%, a viability, T/C [29] of 22.5% and a viability, T/C [30] of 30.2%. It also gave a viability, T/C [31] of 25%, a viability, T/C [32] of 22.3% and a viability, T/C [33] of 27.9%. For the same compound, the viability, T/C [34] was 25%, the viability, T/C [35] was 24.4% and the viability, T/C [36] was 25.8%.
